Assay results reported in patent US20250206760A1, “NITROGEN-CONTAINING HETEROCYCLIC COMPOUND, PREPARATION METHOD THEREFOR, AND PHARMACEUTICAL APPLICATION THEREOF” (Jiangsu Hengrui Pharmaceuticals Co., Ltd., priority 2022, published 2025).

Key:
[1] = tested on: HER2 wild-type Ba/F3 cells; test: Ba/F3 cell proliferation assay, HER2 wild-type; assay type: cell-based; conditions: Mus musculus, BaF3, 72 h, Celltiter-Glo cell viability; for GI50: read-out: HER2 WT/BaF3 GI50; for Emax: read-out: HER2 WT/BaF3 Imax %
Description: (§1) EGFR wild-type Ba/F3 cells (Cobioer, Cat. No. CBP73110) in the logarithmic growth phase were seeded into a 96-well plate at 2.5×10^3 cells/[…] in a growth medium, and HER2 wild-type Ba/F3 cells (Cobioer, Cat. No. CBP73110) or HER2 A775_G776insYVMA mutant Ba/F3 (Cobioer, Cat. No. CBP73184) in the logarithmic growth phase were seeded into a 96-well plate at 5×10^3 cells/100 μL in a growth medium.
(§2) The plates were placed in a cell incubator at 37° C. overnight. The compound diluted in 3-fold gradient with a medium was added to the plates at 100 μL/well the next day. All treatments were performed in triplicate. The plates were cultured in the cell incubator at 37° C. for another 72 h. Celltiter-Glo Luminescent cell viability assay was performed.
(§3) The cell proliferation rate corresponding to each well was calculated according to the following formula: proliferation %=(test compound well G3-GO average value)/(DMSO control well G3 average value -GO average value)×100. According to the corresponding proliferation rate and concentration of each gradient concentration well, a gradient curve of cell proliferation was fitted using Prism Graphpad software, and GI50 (GI50 is defined as the concentration of a compound corresponding to the cell proliferation inhibition rate of 50%) of the compound was calculated.

[2] = tested on: HER2 A775_G776insYVMA mutant Ba/F3; test: Ba/F3 cell proliferation assay, HER2 A775_G776insYVMA mutant; assay type: cell-based; conditions: Mus musculus, BaF3, 72 h, Celltiter-Glo cell viability; for GI50: read-out: HER2 A775_G776 ins YVMA/BaF3 GI50; for Emax: read-out: HER2 A775_G776 ins YVMA/BaF3 Imax %
Description: as §1, §2, §3

[3] = tested on: EGFR wild-type Ba/F3 cells; test: Ba/F3 cell proliferation assay, EGFR wild-type; assay type: cell-based; conditions: 72 h, Celltiter-Glo cell viability; for GI50: Mus musculus, BaF3, read-out: EGFR WT/BaF3 GI50
Description: as §1, §2, §3

in vivo [4] = test: in vivo; design: species or system C57 mice; conditions: female, C57, mouse, po, 50 mg/kg
Description: C57 mice were used as test animals. After intragastric (i.g.) administration of example compounds to C57 mice, the plasma concentrations at different time points were measured by the LC/MS/MS method. The pharmacokinetic behavior of the compounds of the present disclosure in C57 mice was studied and their pharmacokinetic profiles were evaluated.
Twenty-seven C57 mice, female, were evenly divided into 3 groups, provided by Beijing HFK Bioscience Co., Ltd., and intragastrically administered.
A certain amount of example compound was weighed out and dissolved in 5% DMSO+20% PEG400+70% (10% TPGS)+5% (1% HPMC K100LV) to prepare a 2.5 mg/mL colorless clear solution.
The dose administered was 50 mg/kg, and the volume was 20.0 mL/kg.
(§4) 0.1-mL blood samples were collected from the orbit before administration and 0.25 h, 0.5 h, 1.0 h, 2.0 h, 4.0 h, 6.0 h, 8.0 h, 11.0 h, and 24.0 h after administration. The blood samples were placed into EDTA-K2 anticoagulation test tubes and centrifuged at 10,000 rpm for 2 min (4° C.), and plasma was separated within 1 h and stored at −20° C. before analysis. The procedure starting from the blood collection to the centrifugation was performed under ice-bath conditions. Access to food was given 2 hours after administration.
After administration of different concentrations of the test compounds, the plasma concentrations of the test compounds in C57 mice were determined: plasma samples (50 μL) were collected from the C57 mice at various time points after administration, and 25 μL of labetalol (1 μg/mL) and 450 μL of acetonitrile were added to each of the samples.
The mixtures were vortexed and centrifuged at 3700 rpm for 10 min. 0.1 μL of the supernatant was taken for LC/MS/MS analysis.

in vivo [5] = test: in vivo; design: species or system SD rats; conditions: both sexes, SD, rat, po, 50 mg/kg
Description: SD rats were used as test animals. After intragastric (i.g.) administration of example compounds to SD rats, the plasma concentrations at different time points were measured by the LC/MS/MS method. The pharmacokinetic behavior of the compound of the present disclosure in SD rats was studied, and its pharmacokinetic profiles were evaluated.
Four SD rats, of which half were male and half female, were provided by Vital River Laboratory Animal Technology Co., Ltd. The animals were fasted overnight and then intragastrically dosed.
A certain amount of example compound was weighed out and dissolved in 5% DMSO+20% PEG400+70% (10% TPGS)+5% (1% HPMC K100LV) to prepare a 5 mg/mL colorless clear solution.
The dose administered was 50 mg/kg, and the volume was 10.0 mL/kg.
as §4, with “0.2-mL blood” for “0.1-mL blood”, “for 1” for “for 2”, “stored in dry ice” for “stored at −20° C.”
After administration of different concentrations of the test compounds, the plasma concentration of the test compound in SD rats was determined: plasma samples (50 μL) were collected from the SD rats at various time points after administration, and 25 μL of camptothecin (1 μg/mL) and 450 μL of acetonitrile were added to each of the samples. The mixtures were vortexed and centrifuged at 3700 rpm for 10 min. 0.1 μL of the supernatant was taken for LC/MS/MS analysis.

Row | Compound | GI50 [1] [nM] | Emax [1] [%] | GI50 [2] [nM] | Emax [2] [%] | EGFR WT/BaF3 Imax % [3] [%] | GI50 [3] [nM] | AUC(0-t) (in vivo [4]) [ng·h/mL] | CL/F (in vivo [4]) [mL/min/kg] | Cmax (in vivo [4]) [ng/mL] | Vd/F (in vivo [4]) [L/kg] | half-life (in vivo [4]) [h] | AUC(0-t) (in vivo [5]) [ng·h/mL] | CL/F (in vivo [5]) [mL/min/kg] | Cmax (in vivo [5]) [ng/mL] | Vd/F (in vivo [5]) [L/kg] | half-life (in vivo [5]) [h]
1 | C=CC(=O)N1[C@@H]2CC[C@H]1C[C@@H](Oc1ccc3ncnc(Nc4ccc(Oc5ccc6c(c5)ncn6C)c(C)c4F)c3c1)C2 [Example 18, 1-(endo-3-((4-((2-Fluoro-3-methyl-4-((1-methyl-1H-benzo[d]imidazol-5-yl)oxy)phenyl)amino)quinazolin-6-yl)oxy)-8-azabicyclo[3.2.1]octan-8-yl)prop-2-en-1-one] | 17.7 | 100 | 23.6 | 100 | 100 | 2130 | 44900 | 18.5 | 12700 | 3.93 | 2.5 | – | – | – | – | –
2 | C=CC(=O)N1[C@@H]2CC[C@H]1C[C@H](Oc1cc3c(Nc4ccc(Oc5ccn6ncnc6c5)c(C)c4)ncnc3cn1)C2 [Example 26, 1-(exo-3-((4-((4-([1,2,4]Triazolo[1,5-a]pyridin-7-yloxy)-3-methylphenyl)amino)pyrido[3,4-d]pyrimidin-6-yl)oxy)-8-azabicyclo[3.2.1]octan-8-yl)prop-2-en-1-one] | 9.2 | 100 | 23.4 | 100 | 100 | 1630 | 32100 | 26 | 11300 | 2.88 | 1.3 | – | – | – | – | –
3 | C=CC(=O)N1[C@@H]2CC[C@H]1C[C@@H](Oc1ccc3ncnc(Nc4ccc(Oc5ccn6ncnc6c5)c(C)c4F)c3c1)C2 [Example 10, 1-(endo-3-((4-((4-([1,2,4]Triazolo[1,5-a]pyridin-7-yloxy)-2-fluoro-3-methylphenyl)amino)quinazolin-6-yl)oxy)-8-azabicyclo[3.2.1]octan-8-yl)prop-2-en-1-one] | 9.3 | 100 | 10.3 | 100 | 100 | 2840 | 31200 | 26.5 | 14000 | 3.75 | 1.6 | 70800 | 14.7 | 19300 | 2.95 | 2.3
